Counter-ions that a name gives are not always drawn.
Columns and labels:
[1] = test system: Sodium channel; assay: Inhibitory effect of veratrizine-induced sodium channel activity (synaptosome membrane potential, Rhodamine 6G); format: biochemical, Wistar rats; details: compound 0.1 μM, rat brain synaptozomes, veratridine-induced depolarization
Protocol: Inhibitory Effect of Veratrizine-induced Sodium Channel Activity
The membrane potential of the synaptozomes prepared from the brain membrane of Wistar rats (male, 10 to 12 weeks old) was measured by the method of Aiuchi et al. (t. Aiuchi et al: Biochimi. Biophys. Acta. 771, 228 (1984)) using a membrane potential sensitive fluorescent dye Rhodamine 6G to evaluate the effects of suppression of the compound on the veratrizine-inducing depolarization response.

[2] = test system: DBA/2N type mice; assay: Audiogenic seizure suppressing effect; format: in vivo; details: Mus musculus, ip, 20 min, compound 10 mg/kg, i.p.; audio stimulus after 20 minutes; suppression of average seizure score; read-out: Antiseizure effect (suppression rate %)
Protocol: Audiogenic Seizure Suppressing Effect
The audiogenic seizure suppressing effect of the compounds was evaluated by the method of Sarro et al. [G. B. De Sarro et al., Br. J. Pharmacol., 93, 247 (1988)]. That is, the compound dissolved in 10% 2-hydroxypropyl-β-cyclodextrin was administered intraperitoneally to DBA/2N type mice (male, 3 weeks old). After 20 minutes, a supersonic washer was used to apply audio stimulus of at least 90 dB for one minute. The wild running (WR), clonic seizures (clonus), tonic seizures (tonus), and respiratory arrest (RA) were observed.

[3] = Acute toxicity after intravenous injection; details: mouse, in vivo, ddY mice (male, 6 weeks old), death rate up to 24 hours, read-out: 50% lethal dosage LD50 of acute toxicity
From the text: The compound according to the present invention is low in toxicity.

[4] = test system: T-type Ca^2+ channel; assay: T-type calcium channel inhibitory effect (whole-cell patch clamp, hippocampal CA1 pyramidal cells); details: read-out: T-type Ca^2+ channel inhibitory effect IC50; suppression of peak current after one minute of application; rat hippocampal CA1 pyramidal cells

Row | melting point [°C] | Compound | Anti-veratridine effect (inhibiting rate %) [1] [%] | inhibition in vivo at 10 mg/kg [2] [%] | LD50 at 24 h [3] [mg/kg] | IC50 [4] [nM] | Anti-veratridine effect (inhibiting rate %) ([1]; 0.1 µM) [%]
1 | 148 to 150 | OC1(c2ccc(Oc3ccc(F)cc3)cc2)CCN(C/C=C/c2ccccc2)CC1 (as salt: fumarate) | – | – | – | – | –
2 | 50 to 52 | O=C(CN1CCC(O)(c2ccc(Oc3ccc(F)cc3)cc2)CC1)c1ccccc1 (as salt: fumarate) | – | – | – | – | –
3 | 48 to 50 | O[C@H](COc1ccccc1)CN1CCC(O)(c2ccc(Oc3ccc(F)cc3)cc2)CC1 (as salt: fumarate) | – | – | – | – | –
4 | – | OC1(c2ccc(-c3ccccc3)c(F)c2)CCN(C/C=C/c2ccccc2)CC1 [Compound 17, (E)-4-(3-fluoro-4-phenyl)phenyl-1-(3-phenyl-2-propenyl)-4-piperidinol] | 26.8 | 88 | 32 | 1900 | –
5 | – | OC1(c2ccc(Oc3ccccc3)cc2)CCN(C/C=C/c2ccccc2)CC1 [Compound 34, (E)-4-(4-phenoxy)phenyl-1-(3-phenyl-2-propenyl)-4-piperidinol] | 29.9 | 80 | – | 1700 | –
6 | – | OC(COc1ccccc1)CN1CCC(O)(c2ccc(Cc3ccc(F)cc3)cc2)CC1 (stereo not shown) [Compound 39, 4-[4-(4-fluorophenyl)methylphenyl]-1-(2-hydroxy-3-phenoxy)propyl-4-piperidinol] | – | 90 | – | 1300 | 18.7
7 | – | O[C@H](COc1ccccc1)CN1CCC(O)(c2ccc(-c3ccccc3)c(F)c2)CC1 [Compound 42, (S)-4-(3-fluoro-4-phenyl)phenyl-1-(2-hydroxy-3-phenoxy)propyl-4-piperidinol] | 21 | 72 | – | 550 | –
8 | – | O[C@@H](COc1ccccc1)CN1CCC(O)(c2ccc(-c3ccccc3)c(F)c2)CC1 [Compound 43, (R)-4-(3-fluoro-4-phenyl)phenyl-1-(2-hydroxy-3-phenoxy)propyl-4-piperidinol] | 21.2 | 90 | – | 1400 | –
